{"source": "patent US10253002B2", "about": "“Compounds and methods of treating infections” (Neoculi Pty Ltd., priority 2013, dated 2019)", "key": {"Pseudomonas aeruginosa": {"test_system": "Pseudomonas aeruginosa", "assay": "Broth microdilution MIC, Example 7 (NCL812 and analogues)", "assay_type": "cell-based", "conditions": "Pseudomonas aeruginosa"}, "[1]": {"test_system": "Staphylococcus pseudintermedius isolates (MSSP and MRSP)", "assay": "MIC (CLSI), Example 6", "assay_type": "cell-based", "protocol": "Anti-staphylococcal compounds were then tested against all 23 isolates and minimum inhibitory concentrations (MIC) were determined according to standard protocols. After the MICs were determined, the minimum bactericidal concentrations were performed to determine if these compounds are bacteriostatic or bacteriocidal."}, "Salmonella arizonae": {"test_system": "Salmonella arizonae", "assay": "Broth microdilution MIC, Example 7", "assay_type": "cell-based", "conditions": "S. arizonae", "protocol": "Minimum inhibitory concentrations (μg/ml) were determined using the broth microdilution method recommended by the Clinical and Laboratory Standards Institute (CLSI). […] Bacterial growth (turbidity) in the wells with antimicrobial was compared with the amount of growth (turbidity) in the growth-control well (containing no antimicrobial). All isolates were tested in duplicate, if there was a difference of greater than one two-fold dilution in the results, the test was repeated a third time. The purity of the isolates was closely monitored during testing by subculturing the prepared bacterial inoculum onto SBA (sheep blood agar). The MICs of the control strains for the antimicrobial ampicillin were determined for each testing run as an internal quality control. The MIC50, […] and MIC range (minimum and maximum) were calculated for each of the bacterial groups."}, "MRSA": {"test_system": "MRSA", "assay": "Broth microdilution MIC, Example 7 (NCL812 and analogues)", "assay_type": "cell-based, Staphylococcus aureus", "procedure,_shortened": "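Duplicates per isolate, repeated a third time if >one two-fold dilution apart. MIC50, MIC20 and range calculated per bacterial group.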"}, "[2]": {"conditions": "Staphylococcus pseudintermedius isolates"}}, "note": "Read-outs that look alike come from different tables or passages of the source.", "data": [{"smiles": "CC1(C)S[C@@H]2[C@H](NC(=O)[C@H](N)c3ccccc3)C(=O)N2[C@H]1C(=O)O", "note": "[Ampicillin]", "values": [{"measurement": "MIC", "setting": "Pseudomonas aeruginosa; 24 h, read-out: MIC (μg/ml) at 24 hours, P. aeruginosa, 24 hours, 1st and 2nd replicate rows", "result": "> 128", "unit": "µg/mL"}, {"measurement": "MIC", "setting": "Pseudomonas aeruginosa; P. aeruginosa, 1st, read-out: MIC", "result": "> 128", "unit": "µg/mL"}, {"measurement": "MIC", "setting": "Pseudomonas aeruginosa; P. aeruginosa, 2nd, read-out: MIC", "result": "> 128", "unit": "µg/mL"}, {"measurement": "MIC50", "setting": "[1]; [2]", "result": 32, "unit": "µg/mL"}, {"measurement": "MIC90", "setting": "[1]; [2]", "result": 128, "unit": "µg/mL"}, {"measurement": "MIC range", "setting": "[1]; [2]", "result": "0.1 to 128", "unit": "µg/mL"}, {"measurement": "MIC", "setting": "[1]; Staphylococcus pseudintermedius, Staphylococcus pseudintermedius isolates, read-out: MIC mode", "result": 128, "unit": "µg/mL"}, {"measurement": "MIC", "setting": "[1]; Staphylococcus pseudintermedius, isolate S5P5, read-out: MIC", "result": 16, "unit": "µg/mL"}, {"measurement": "MIC", "setting": "[1]; Staphylococcus pseudintermedius, isolate S6P6, read-out: MIC", "result": 64, "unit": "µg/mL"}, {"measurement": "MIC", "setting": "[1]; Staphylococcus pseudintermedius, isolate S9P9, read-out: MIC", "result": 32, "unit": "µg/mL"}, {"measurement": "MIC", "setting": "[1]; Staphylococcus pseudintermedius, isolate S10P10, read-out: MIC", "result": 64, "unit": "µg/mL"}, {"measurement": "MIC", "setting": "[1]; Staphylococcus pseudintermedius, isolate S12P12, read-out: MIC", "result": 32, "unit": "µg/mL"}, {"measurement": "MIC", "setting": "[1]; Staphylococcus pseudintermedius, isolate S13P13, read-out: MIC", "result": 0.25, "unit": "µg/mL"}, {"measurement": "MIC", "setting": "[1]; Staphylococcus pseudintermedius, isolate S14P14, read-out: MIC", "result": 1, "unit": "µg/mL"}, {"measurement": "MIC", "setting": "[1]; Staphylococcus pseudintermedius, isolate S15P15, read-out: MIC", "result": 4, "unit": "µg/mL"}, {"measurement": "MIC", "setting": "[1]; Staphylococcus pseudintermedius, isolate S16P16, read-out: MIC", "result": 0.25, "unit": "µg/mL"}, {"measurement": "MIC", "setting": "[1]; Staphylococcus pseudintermedius, isolate S17P17, read-out: MIC", "result": 1, "unit": "µg/mL"}, {"measurement": "MIC", "setting": "[1]; Staphylococcus pseudintermedius, isolate S18P18, read-out: MIC", "result": 4, "unit": "µg/mL"}, {"measurement": "MIC", "setting": "[1]; Staphylococcus pseudintermedius, isolate S19P19, read-out: MIC", "result": 0.5, "unit": "µg/mL"}, {"measurement": "MIC", "setting": "[1]; Staphylococcus pseudintermedius, isolate S20P20, read-out: MIC", "result": 4, "unit": "µg/mL"}, {"measurement": "MIC", "setting": "[1]; Staphylococcus pseudintermedius, isolate S21P21, read-out: MIC", "result": 0.1, "unit": "µg/mL"}, {"measurement": "MIC", "setting": "[1]; Staphylococcus pseudintermedius, isolate S22P22, read-out: MIC", "result": 8, "unit": "µg/mL"}, {"measurement": "MIC", "setting": "[1]; Staphylococcus pseudintermedius, isolate S23P23, read-out: MIC", "result": 32, "unit": "µg/mL"}, {"measurement": "MIC", "setting": "[1]; isolate S1P1", "result": 128, "unit": "µg/mL"}, {"measurement": "MIC", "setting": "[1]; isolate S3P3", "result": 128, "unit": "µg/mL"}, {"measurement": "MIC", "setting": "[1]; isolate S4P4", "result": 128, "unit": "µg/mL"}, {"measurement": "MIC", "setting": "[1]; isolate S7P7", "result": 128, "unit": "µg/mL"}, {"measurement": "MIC", "setting": "[1]; isolate S8P8", "result": 128, "unit": "µg/mL"}, {"measurement": "MIC", "setting": "[1]; isolate S11P11", "result": 128, "unit": "µg/mL"}, {"measurement": "MIC", "setting": "Salmonella arizonae; 2nd", "result": 1, "unit": "µg/mL"}, {"measurement": "MIC", "setting": "Salmonella arizonae; Salmonella enterica, 1st, read-out: MIC", "result": 1, "unit": "µg/mL"}, {"measurement": "MIC", "setting": "MRSA; MRSA 610, Phase I, 2nd", "result": 128, "unit": "µg/mL"}, {"measurement": "MIC", "setting": "MRSA; MRSA 713, Phase II, 1st", "result": 128, "unit": "µg/mL"}, {"measurement": "MIC", "setting": "MRSA; MRSA 713, Phase II, 2nd", "result": 128, "unit": "µg/mL"}, {"measurement": "MIC", "setting": "MRSA; MRSA 778, Phase II, 1st", "result": 128, "unit": "µg/mL"}, {"measurement": "MIC", "setting": "MRSA; MRSA 778, Phase II, 2nd", "result": 128, "unit": "µg/mL"}, {"measurement": "MIC", "setting": "MRSA; MRSA 823, Phase II, 1st", "result": 128, "unit": "µg/mL"}, {"measurement": "MIC", "setting": "MRSA; MRSA 823, Phase II, 2nd", "result": 128, "unit": "µg/mL"}, {"measurement": "MIC", "setting": "MRSA; MRSA 844, Phase I, 1st", "result": 128, "unit": "µg/mL"}, {"measurement": "MIC", "setting": "MRSA; MRSA 844, Phase I, 2nd", "result": 128, "unit": "µg/mL"}, {"measurement": "MIC", "setting": "MRSA; Staphylococcus aureus, MRSA, 24 h, read-out: MIC (μg/ml) at 24 hours, MRSA 1, isolate MRSA 1, 24 hours, 1st and 2nd replicate rows", "result": "> 128", "unit": "µg/mL"}, {"measurement": "MIC", "setting": "MRSA; Staphylococcus aureus, MRSA, 24 h, read-out: MIC (μg/ml) at 24 hours, MRSA 2, isolate MRSA 2, 24 hours, 1st and 2nd replicate rows", "result": 16, "unit": "µg/mL"}, {"measurement": "MIC", "setting": "MRSA; Staphylococcus aureus, MRSA, MRSA 516, Phase I, 1st, read-out: MIC", "result": 32, "unit": "µg/mL"}, {"measurement": "MIC", "setting": "MRSA; Staphylococcus aureus, MRSA, MRSA 516, Phase I, 2nd, read-out: MIC", "result": 32, "unit": "µg/mL"}, {"measurement": "MIC", "setting": "MRSA; Staphylococcus aureus, MRSA, MRSA 516, Phase II, 1st, read-out: MIC", "result": 32, "unit": "µg/mL"}, {"measurement": "MIC", "setting": "MRSA; Staphylococcus aureus, MRSA, MRSA 516, Phase II, 2nd, read-out: MIC", "result": 16, "unit": "µg/mL"}, {"measurement": "MIC", "setting": "MRSA; Staphylococcus aureus, MRSA, MRSA 570, Phase I, 1st, read-out: MIC", "result": "> 128", "unit": "µg/mL"}, {"measurement": "MIC", "setting": "MRSA; Staphylococcus aureus, MRSA, MRSA 570, Phase I, 2nd, read-out: MIC", "result": "> 128", "unit": "µg/mL"}, {"measurement": "MIC", "setting": "MRSA; Staphylococcus aureus, MRSA, MRSA 570, Phase II, 1st, read-out: MIC", "result": "> 128", "unit": "µg/mL"}, {"measurement": "MIC", "setting": "MRSA; Staphylococcus aureus, MRSA, MRSA 570, Phase II, 2nd, read-out: MIC", "result": "> 128", "unit": "µg/mL"}, {"measurement": "MIC", "setting": "MRSA; Staphylococcus aureus, MRSA, MRSA 580, Phase I, 1st, read-out: MIC", "result": "> 128", "unit": "µg/mL"}, {"measurement": "MIC", "setting": "MRSA; Staphylococcus aureus, MRSA, MRSA 580, Phase I, 2nd, read-out: MIC", "result": "> 128", "unit": "µg/mL"}, {"measurement": "MIC", "setting": "MRSA; Staphylococcus aureus, MRSA, MRSA 580, Phase II, 1st, read-out: MIC", "result": "> 128", "unit": "µg/mL"}, {"measurement": "MIC", "setting": "MRSA; Staphylococcus aureus, MRSA, MRSA 580, Phase II, 2nd, read-out: MIC", "result": "> 128", "unit": "µg/mL"}, {"measurement": "MIC", "setting": "MRSA; Staphylococcus aureus, MRSA, MRSA 606, Phase I, 1st, read-out: MIC", "result": 32, "unit": "µg/mL"}, {"measurement": "MIC", "setting": "MRSA; Staphylococcus aureus, MRSA, MRSA 606, Phase I, 2nd, read-out: MIC", "result": 32, "unit": "µg/mL"}, {"measurement": "MIC", "setting": "MRSA; Staphylococcus aureus, MRSA, MRSA 606, Phase II, 1st, read-out: MIC", "result": 32, "unit": "µg/mL"}, {"measurement": "MIC", "setting": "MRSA; Staphylococcus aureus, MRSA, MRSA 606, Phase II, 2nd, read-out: MIC", "result": 32, "unit": "µg/mL"}]}]}
